Data on 7 compounds can be found in article PMC10176891 (Bioorganic & Medicinal Chemistry Letters, 2023).

The target of one data set is SARS-CoV-2 M^pro (Severe acute respiratory syndrome coronavirus 2, UniProt P0DTD1). In words: SARS-CoV-2 Mpro enzymatic assay. The class given is biochemical.
Data set [1] is described as follows: Liver microsome stability, rat. The class given is in vitro ADME. The conditions noted are these: liver microsomes. On the technique in general: Microsomes from liver hold many membrane-bound enzymes, among them those of drug oxidation.
A short description of data set [2]: Hepatocytes stability, human. The class given is in vitro ADME.
A short description of data set [3]: Hepatocytes stability, rat. The class given is in vitro ADME.
The nature of data set [4]: Liver microsome stability, human. The class given is in vitro ADME. The conditions noted are these: liver microsomes.
Data set [5] is described as follows: Liver microsome stability, mouse. The class given is in vitro ADME. The conditions noted are these: liver microsomes.
The nature of the next data set: Mouse PK. As to conditions: iv 3 mg/kg. The class given is in vivo.
Another data set is described as follows: Rat PK. The class given is in vivo. As to conditions: iv 2 mg/kg.
Data set [6] in a line: Hepatocytes stability, mouse. The class given is in vitro ADME.
A short description of data set [7]: Predicted human clearance by simple allometric scaling. As to conditions: simple allometric scaling method.
The next data set has as its system HCoV-OC43. The class given is in vivo. The conditions noted are these: intraperitoneal injection, 7 days, 6 neonatal mice per group.
Where [8] appears, read: vehicle 40% PEG400 + 60 %saline.

On to `CC(=O)N[C@H](C(=O)N1C[C@@H]2CCC[C@@H]2[C@H]1C(=O)N[C@H](C#N)C[C@@H]1CCNC1=O)C1CCCCC1` [3c], for which the “Folds loss in enzymatic and cell potencies” value at SARS-CoV-2 M^pro (P3 cap modifications, enzymatic and cell potencies) is listed as 3–10 folds.
Broadly, the CLint scaled is the capacity of the preparation to metabolise the compound, expressed as a volume cleared per time. Low readings indicate greater metabolic stability, high ones faster metabolism. Take `N#C[C@H](C[C@@H]1CCNC1=O)NC(=O)[C@@H]1[C@H]2CCC[C@H]2CN1C(=O)[C@@H](NC(=O)C(F)(F)F)C1CCCCC1` [3a]: the CLint scaled in [1] was less than 17.3 mL/min/kg; in data set [2] it was less than 17.8 mL/min/kg; in [3], 51 mL/min/kg; in [4], 19 mL/min/kg; in [5], 215 mL/min/kg; in data set [6], 455 mL/min/kg. Besides, the CL stood at 92.2 mL min^−1 kg^−[1] in “Mouse PK” (vehicle saline) and 62.7 mL min^−1 kg^−[1] in the data set “Rat PK” (vehicle saline).
For `CC(C)(C)[C@H](NC(=O)C(F)(F)F)C(=O)N1C[C@H]2[C@@H]([C@H]1C(=O)N[C@H](C#N)C[C@@H]1CCNC1=O)C2(C)C` [nirmatrelvir, reference compound], the CLint scaled in data set [1] is less than 17.3 mL/min/kg; in [2], less than 17.8 mL/min/kg; in [3], less than 29.9 mL/min/kg; in data set [4], 29 mL/min/kg; in data set [5] it was 329 mL/min/kg; in [6] it was 169 mL/min/kg. In addition, the figures for the CL in “Mouse PK” (vehicle saline) and in the data set “Rat PK” (vehicle saline) were 30.2 mL min^−1 kg^−[1] and 42.0 mL min^−1 kg^−[1], respectively.
For the compound `CC(C)(C)[C@H](NC(=O)C(F)(F)F)C(=O)N1C[C@@H]2CCC[C@@H]2[C@H]1C(=O)N[C@H](C#N)C[C@@H]1CCNC1=O` [2a], the intrinsic metabolic clearance (CLint scaled) is less than 17.3 mL/min/kg in [1]; less than 17.8 mL/min/kg in data set [2]; 32 mL/min/kg in [3]; 13 mL/min/kg in [4]; 262 mL/min/kg in data set [5]; 435 mL/min/kg in [6]. The CL in the data set “Mouse PK” (vehicle saline) turned out to be 79.3 mL min^−1 kg^−[1]; in “Rat PK” (vehicle saline), 75.4 mL min^−1 kg^−[1].
As for `N#C[C@H](C[C@@H]1CCNC1=O)NC(=O)[C@@H]1[C@H]2CCC[C@H]2CN1C(=O)[C@@H](NC(=O)C(F)(F)F)c1ccc(F)cc1` [3b], the “Fold weaker in enzymatic potency relative to 2a” value at SARS-CoV-2 M^pro (relative to 2a) was 4 fold.
For the compound `CC(C)(C)NC(=O)C(=O)[C@H](C[C@@H]1CCNC1=O)NC(=O)[C@@H]1[C@H]2CCC[C@H]2CN1C(=O)[C@@H](NC(=O)C(F)(F)F)C1CCCC1` [4c], the CL in the data set “Mouse PK” (setting [8]) came out at 5.06 mL min^−1 kg^−[1].
`CC(C)(C)NC(=O)C(=O)[C@H](C[C@@H]1CCNC1=O)NC(=O)[C@@H]1[C@H]2CCC[C@H]2CN1C(=O)[C@@H](NC(=O)C(F)(F)F)C1CCCCC1` [4a]: the CLint scaled was 25 mL/min/kg in [1]; less than 17.8 mL/min/kg in data set [2]; 42 mL/min/kg in data set [3]; 212 mL/min/kg in data set [5]; 1020 mL/min/kg in [6]. Further, the CL in “Mouse PK” (setting [8]) was 2.50 mL min^−1 kg^−[1]; in “Rat PK” (setting [8]), 2.55 mL min^−1 kg^−[1]. Further, the Predicted human clearance entry in data set [7] was “about 2.9 ml/min/kg”. For the same compound, the “Mice survived at day 14” value in the data set with HCoV-OC43 (high dosing group) is recorded as 6/6. Moreover, the Mice survived result with HCoV-OC43 (low dosing group) was “four out of six”.
